Experimental data: patent US20190275012A9, “SUBSTITUTED THIAZOLO-PYRIDINE COMPOUNDS AS MALT1 INHIBITORS” (Lupin Limited, priority 2016, published 2019)

Tests used:
OCI-Ly-10 cells = test: Anticancer assay (14 days), cell viability by CCK-8; type: cell-based; settings: Homo sapiens, OCI-Ly10, 336 h, 14 days treatment, fresh treatment every 5th day, CCK-8 viability, read-out: Ly-10 (14d) inhibition IC50
Protocol: OCI-Ly-10 cells (UHN, Canada) seeded in culture media (IMDM+20% FBS) in 96-well plates were treated with various concentrations of the test compounds. Cells were treated for a period of 14 days (13-15 days depending on the confluency of cells) with fresh treatments every 5th day. After the first treatment, for all subsequent treatments, the cells were centrifuged, the spent media was removed and fresh media containing the test compound was added. Cell viability was assessed using CCK-8 kit (Dojindo Laboratories, China) as per manufacturer's instructions. Plates were read in colorimeter and absorbance was detected. (Detection at 450 nm; Background correction at 650 nm). % inhibition was calculated relative to the samples containing media with 0.1% DMSO alone as per the following formula

full length MALT1 enzyme = target: T1, full length MALT1 enzyme (Homo sapiens, UniProt Q9UDY8); test: MALT1 biochemical assay (fluorescence based, Ac-Leu-Arg-Ser-Arg-AMC cleavage); settings: full length MALT1 protein, 2 h pre-incubation at RT, tetrapeptide substrate Ac-Leu-Arg-Ser-Arg-AMC, read-out: Malt 1 inhibition IC50
T1 construct: a fluorescence based assay with full length MALT1 enzyme
T1 sequence (Q9UDY8 1-824): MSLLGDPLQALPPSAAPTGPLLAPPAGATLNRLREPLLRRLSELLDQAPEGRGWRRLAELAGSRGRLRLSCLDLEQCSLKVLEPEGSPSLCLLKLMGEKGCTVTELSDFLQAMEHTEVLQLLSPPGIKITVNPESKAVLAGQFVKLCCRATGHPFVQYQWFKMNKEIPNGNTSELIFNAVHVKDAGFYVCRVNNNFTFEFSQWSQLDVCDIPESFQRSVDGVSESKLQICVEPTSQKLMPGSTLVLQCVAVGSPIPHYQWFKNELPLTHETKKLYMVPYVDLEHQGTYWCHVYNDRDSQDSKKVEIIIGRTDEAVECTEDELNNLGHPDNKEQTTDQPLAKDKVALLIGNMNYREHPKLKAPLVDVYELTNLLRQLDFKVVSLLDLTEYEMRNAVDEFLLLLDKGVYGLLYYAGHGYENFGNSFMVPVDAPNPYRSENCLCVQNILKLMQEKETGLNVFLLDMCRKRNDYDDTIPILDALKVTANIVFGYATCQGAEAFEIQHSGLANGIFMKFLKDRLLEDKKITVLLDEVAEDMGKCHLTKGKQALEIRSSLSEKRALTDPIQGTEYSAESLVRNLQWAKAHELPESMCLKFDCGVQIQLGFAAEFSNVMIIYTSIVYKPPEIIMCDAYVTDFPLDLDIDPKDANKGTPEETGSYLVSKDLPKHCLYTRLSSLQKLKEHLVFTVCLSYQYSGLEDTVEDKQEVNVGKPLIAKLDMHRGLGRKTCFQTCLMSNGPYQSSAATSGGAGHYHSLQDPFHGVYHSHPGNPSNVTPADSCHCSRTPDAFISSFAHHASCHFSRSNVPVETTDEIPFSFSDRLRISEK
How it was run: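 Full-length MALT1 (100-300 ng/well) was pre-incubated with compound for 2 h at RT, then 100 μM Ac-LRSR-AMC was added for 4-12 h. Buffer was 50 mM MES, 150 mM NaCl, 0.1% CHAPS, 1 M ammonium citrate, 10 mM DTT, pH 7, with 0.5% DMSO. IC50 was derived from AMC fluorescence (ex 360/em 460 nm).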

[1] = test system: NF-kB transcriptional activity in HEK-293-NF-kB-Luc cell line overexpressing MALT1; test: NF-kB reporter assay (luciferase, MALT1 stably overexpressed); type: cell-based; settings: Homo sapiens, 24 h, HEK-293-NF-kB-Luc cells stably overexpressing MALT1, 24 h treatment, Bright Glo luminescence; read-out: NF-kB inhibition IC50
How it was run: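 Inhibition of NF-κB activity was expressed relative to 0.1% DMSO wells, from luminescence after 10 min Bright Glo at ambient temperature. Compounds had been applied for 24 h to adhered MALT1-overexpressing HEK-293 NF-κB luciferase reporter cells.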

Structure (SMILES)	IC50 (OCI-Ly-10 cells) [nM]	IC50 (full length MALT1 enzyme) [nM]	IC50 [1] [nM]
COC(c1c(NC(=O)Nc2cnc(-n3nccn3)c(Cl)c2)cnc2sc(C)nc12)C(C)(C)C (single isomer, unassigned) [Compound 56b, 1-(5-chloro-6-(2H-1,2,3-triazol-2-yl)pyridin-3-yl)-3-(7-(1-methoxy-2,2-dimethylpropyl)-2-methylthiazolo[5,4-b]pyridin-6-yl)urea]	26 to 100	1 to 50	–
COc1ccc(Cl)cc1NC(=O)Nc1cnc2sc(C)nc2c1C(C)OC (single isomer, unassigned) [Compound 128b, 1-(5-Chloro-2-methoxyphenyl)-3-(7-(1-methoxyethyl)-2-methylthiazolo[5,4-b]pyridin-6-yl)urea]	26 to 100	51 to 100	–
COc1cc(-n2nccn2)c(Cl)cc1NC(=O)Nc1cnc2sc(C)nc2c1C(C)OC (single isomer, unassigned) [Compound 131b, 1-(5-Chloro-2-methoxy-4-(2H-1,2,3-triazol-2-yl)phenyl)-3-(7-(1-methoxyethyl)-2-methylthiazolo[5,4-b]pyridin-6-yl)urea]	0.1 to 25	1 to 50	–
CCC(OC)c1c(NC(=O)Nc2cnc(-n3nccn3)c(C(F)(F)F)c2)cnc2sc(C)nc12 (single isomer, unassigned) [Compound 146b, 1-(6-(2H-1,2,3-Triazol-2-yl)-5-(trifluoromethyl)pyridin-3-yl)-3-(7-(1-methoxypropyl)-2-methylthiazolo[5,4-b]pyridin-6-yl)urea]	0.1 to 25	1 to 50	–
COC(c1c(NC(=O)Nc2cnc(-n3nccn3)c(C(F)(F)F)c2)cnc2sc(C)nc12)C1CC1 (single isomer, unassigned) [Compound 151b, 1-(6-(2H-1,2,3-Triazol-2-yl)-5-(trifluoromethyl)pyridin-3-yl)-3-(7-(cyclopropyl(methoxy)methyl)-2-methylthiazolo[5,4-b]pyridin-6-yl)urea]	0.1 to 25	1 to 50	–
CCC(C)c1c(NC(=O)Nc2cnc(-n3nccn3)c(Cl)c2)cnc2sc(C)nc12 (single isomer, unassigned) [Compound 157b, 1-(7-(sec-Butyl)-2-methylthiazolo[5,4-b]pyridin-6-yl)-3-(5-chloro-6-(2H-1,2,3-triazol-2-yl)pyridin-3-yl)urea]	26 to 100	1 to 50	–
COc1ncc(NC(=O)Nc2cnc3sc(C)nc3c2C(C)OC)cc1Cl (single isomer, unassigned) [Compound 159a, 1-(5-Chloro-6-methoxypyridin-3-yl)-3-(7-(1-methoxyethyl)-2-methylthiazolo[5,4-b]pyridin-6-yl)urea]	26 to 100	1 to 50	–
COC(C)c1c(NC(=O)Nc2cnc(-n3cccn3)c(Cl)c2)cnc2sc(C)nc12 (single isomer, unassigned) [Compound 196b, (S) or (R)-1-(5-chloro-6-(1H-pyrazol-1-yl)pyridin-3-yl)-3-(7-(1-methoxyethyl)-2-methylthiazolo[5,4-b]pyridin-6-yl)urea]	26 to 100	1 to 50	–
COC(C)c1c(NC(=O)Nc2ccc(-n3cccn3)c(Cl)c2)cnc2sc(C)nc12 (single isomer, unassigned) [Compound 201b, (S) or (R)-1-(3-Chloro-4-(1H-pyrazol-1-yl)phenyl)-3-(7-(1-methoxyethyl)-2-methylthiazolo[5,4-b]pyridin-6-yl)urea]	26 to 100	1 to 50	–
Cc1nc2c(N(C)CC3CC3)c(NC(=O)Nc3cnc(-n4nccn4)c(Cl)c3)cnc2s1 [Compound 42, 1-(5-Chloro-6-(2H-1,2,3-triazol-2-yl)pyridin-3-yl)-3-(7-((cyclopropylmethyl)(methyl)amino)-2-methylthiazolo[5,4-b]pyridin-6-yl)urea]	26 to 100	–	1 to 100
COCCN(C)c1c(NC(=O)Nc2cnc(-n3nccn3)c(Cl)c2)cnc2sc(C)nc12 [Compound 44, 1-(5-Chloro-6-(2H-1,2,3-triazol-2-yl)pyridin-3-yl)-3-(7-((2-methoxyethyl)(methyl)amino)-2-methylthiazolo[5,4-b]pyridin-6-yl)urea]	101 to 250	–	101 to 500
COc1ncc(NC(=O)Nc2cnc3sc(C)nc3c2N(C)CC(C)OC)cc1Cl (stereo not shown) [Compound 55a, 1-(5-Chloro-6-methoxypyridin-3-yl)-3-(7-((2-methoxypropyl)(methyl)amino)-2-methylthiazolo[5,4-b]pyridin-6-yl)urea]	101 to 250	–	501 to 1500
COCCN(c1c(NC(=O)Nc2cnc(-n3nccn3)c(C(F)(F)F)c2)cnc2sc(C)nc12)C1CC1 [Compound 69, 1-(6-(2H-1,2,3-Triazol-2-yl)-5-(trifluoromethyl)pyridin-3-yl)-3-(7-(cyclopropyl (2-methoxyethyl)amino)-2-methylthiazolo[5,4-b]pyridin-6-yl)urea]	101 to 250	–	1 to 100
CCC(c1c(NC(=O)Nc2cnc(-n3nccn3)c(C(F)(F)F)c2)cnc2sc(C)nc12)N(C)C (stereo not shown) [Compound 75a, 1-(6-(2H-1,2,3-Triazol-2-yl)-5-(trifluoromethyl)pyridin-3-yl)-3-(7-(1-(dimethylamino)propyl)-2-methylthiazolo[5,4-b]pyridin-6-yl)urea]	501 to 1500	–	101 to 500
COC(c1c(NC(=O)Nc2cnc(-n3nccn3)c(Cl)c2)cnc2sc(C)nc12)C(C)C (stereo not shown) [Compound 79a, 1-(5-Chloro-6-(2H-1,2,3-triazol-2-yl)pyridin-3-yl)-3-(7-(1-methoxy-2-methylpropyl)-2-methylthiazolo[5,4-b]pyridin-6-yl)urea]	101 to 250	–	101 to 500
COc1nc(-n2nccn2)c(C(F)(F)F)cc1NC(=O)Nc1cnc2sc(C)nc2c1C(OC)C(C)C (stereo not shown) [Compound 80a, 1-(7-(1-Methoxy-2-methylpropyl)-2-methylthiazolo[5,4-b]pyridin-6-yl)-3-(2-methoxy-6-(2H-1,2,3-triazol-2-yl)-5-(trifluoromethyl)pyridin-3-yl)urea]	26 to 100	–	1 to 100
COC(c1ccc(F)cc1)c1c(NC(=O)Nc2cnc(-n3nccn3)c(C(F)(F)F)c2)cnc2sc(C)nc12 (stereo not shown) [Compound 85b, 1-(6-(2H-1,2,3-Triazol-2-yl)-5-(trifluoromethyl)pyridin-3-yl)-3-(7-((4-fluorophenyl)(methoxy)methyl)-2-methylthiazolo[5,4-b]pyridin-6-yl)urea]	251 to 500	–	1 to 100
COC(c1c(NC(=O)Nc2cnc(-n3nccn3)c(C(F)(F)F)c2)cnc2sc(C)nc12)C1CCC1 (stereo not shown) [Compound 224b, 1-(6-(2H-1,2,3-Triazol-2-yl)-5-(trifluoromethyl)pyridin-3-yl)-3-(7-(cyclobutyl(methoxy)methyl)-2-methylthiazolo[5,4-b]pyridin-6-yl)urea]	0.1 to 25	–	1 to 100
COC(c1c(NC(=O)Nc2cnc(-n3nccn3)c(Cl)c2)cnc2sc(C)nc12)C1CCC1 (stereo not shown) [Compound 225b, 1-(5-Chloro-6-(2H-1,2,3-triazol-2-yl)pyridin-3-yl)-3-(7-(cyclobutyl(methoxy)methyl)-2-methylthiazolo[5,4-b]pyridin-6-yl)urea]	26 to 100	–	1 to 100
CCOc1nc(-n2nccn2)c(C(F)(F)F)cc1NC(=O)Nc1cnc2sc(C)nc2c1C(OC)C1CC1 (stereo not shown) [Compound 226a, 1-(7-(Cyclopropyl(methoxy)methyl)-2-methylthiazolo[5,4-b]pyridin-6-yl)-3-(2-ethoxy-6-(2H-1,2,3-triazol-2-yl)-5-(trifluoromethyl)pyridin-3-yl)urea]	26 to 100	–	1 to 100
